PubChem BioAssay (NCI)
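Method: 48-hour compound exposure of cells in 96-well plates, five concentrations, linear interpolation of endpoints. Abbreviation: GI50, concentration required for 50% inhibition of growth. TGI is the concentration that stops growth completely.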

How the values were obtained:
Assay in all cases: growth of human tumour cells (NCI), 48 h
SF-295 CNS = tested on: SF-295 CNS
MOLT-4 leukemia = tested on: MOLT-4 leukemia
COLO 205 colon = tested on: COLO 205 colon
OVCAR-4 ovarian = tested on: OVCAR-4 ovarian
HL-60(TB) leukemia = tested on: HL-60(TB) leukemia
MDA-MB-435 = tested on: MDA-MB-435
A549 NSCLC = tested on: A549 NSCLC
UACC-62 melanoma = tested on: UACC-62 melanoma
NCI-H522 lung = tested on: NCI-H522 lung
DU-145 prostate = tested on: DU-145 prostate
SK-MEL-28 melanoma = tested on: SK-MEL-28 melanoma
NCI-H226 lung = tested on: NCI-H226 lung
OVCAR-5 ovarian = tested on: OVCAR-5 ovarian
SW-620 colon = tested on: SW-620 colon
MDA-MB-231 breast = tested on: MDA-MB-231 breast
ACHN renal = tested on: ACHN renal
HCC-2998 colon = tested on: HCC-2998 colon
K-562 leukemia = tested on: K-562 leukemia
BT-549 breast = tested on: BT-549 breast
SK-MEL-5 melanoma = tested on: SK-MEL-5 melanoma
TK-10 renal = tested on: TK-10 renal
SK-MEL-2 melanoma = tested on: SK-MEL-2 melanoma
SK-OV-3 ovarian = tested on: SK-OV-3 ovarian
PC-3 prostate = tested on: PC-3 prostate
SN12C renal = tested on: SN12C renal
IGROV1 ovarian = tested on: IGROV1 ovarian
UACC-257 melanoma = tested on: UACC-257 melanoma
SNB-19 CNS = tested on: SNB-19 CNS
KM12 colon = tested on: KM12 colon
MCF7 breast = tested on: MCF7 breast
SF-268 CNS = tested on: SF-268 CNS
NCI-H23 lung = tested on: NCI-H23 lung
CCRF-CEM leukemia = tested on: CCRF-CEM leukemia
U251 CNS = tested on: U251 CNS
UO-31 renal = tested on: UO-31 renal
HT29 colon = tested on: HT29 colon
786-0 renal = tested on: 786-0 renal
CAKI-1 renal = tested on: CAKI-1 renal
NCI-H460 lung = tested on: NCI-H460 lung
M14 melanoma = tested on: M14 melanoma
SNB-75 CNS = tested on: SNB-75 CNS
RPMI-8226 leukemia = tested on: RPMI-8226 leukemia
SF-539 CNS = tested on: SF-539 CNS
LOX IMVI melanoma = tested on: LOX IMVI melanoma
HCT-116 colon = tested on: HCT-116 colon
OVCAR-8 ovarian = tested on: OVCAR-8 ovarian
OVCAR-3 ovarian = tested on: OVCAR-3 ovarian
HOP-92 NSCLC = tested on: HOP-92 NSCLC
HOP-62 NSCLC = tested on: HOP-62 NSCLC
NCI/ADR-RES ovarian = tested on: NCI/ADR-RES ovarian
A498 renal = tested on: A498 renal
HS 578T breast = tested on: HS 578T breast
RXF 393 renal = tested on: RXF 393 renal
MALME-3M melanoma = tested on: MALME-3M melanoma
HCT-15 colon = tested on: HCT-15 colon
EKVX NSCLC = tested on: EKVX NSCLC

COc1ccc(-c2nc3ccc(Cc4ccc5nc(-c6ccc(OC)cc6)[nH]c5c4)cc3[nH]2)cc1
GI50 (SF-295 CNS): 17.6 nM | TGI (SF-295 CNS): 364 nM | GI50 (MOLT-4 leukemia): < 10 nM | TGI (MOLT-4 leukemia): 1290 nM | GI50 (COLO 205 colon): < 10 nM | TGI (COLO 205 colon): 184 nM | GI50 (OVCAR-4 ovarian): 189 nM | TGI (OVCAR-4 ovarian): 2140 nM | GI50 (HL-60(TB) leukemia): < 14.5 nM | TGI (HL-60(TB) leukemia): 79 nM | GI50 (MDA-MB-435): < 10 nM | TGI (MDA-MB-435): 20.2 nM | GI50 (A549 NSCLC): 43.8 nM | TGI (A549 NSCLC): 237 nM | GI50 (UACC-62 melanoma): 47.1 nM | TGI (UACC-62 melanoma): 2190 nM | GI50 (NCI-H522 lung): 17.1 nM | TGI (NCI-H522 lung): 53.5 nM | GI50 (DU-145 prostate): 38.5 nM | TGI (DU-145 prostate): 154 nM | GI50 (SK-MEL-28 melanoma): 252 nM | TGI (SK-MEL-28 melanoma): 2490 nM | GI50 (NCI-H226 lung): 475 nM | TGI (NCI-H226 lung): 2560 nM | GI50 (OVCAR-5 ovarian): 182 nM | TGI (OVCAR-5 ovarian): 2850 nM | GI50 (SW-620 colon): < 15.1 nM | TGI (SW-620 colon): 173 nM | GI50 (MDA-MB-231 breast): 47.6 nM | TGI (MDA-MB-231 breast): 586 nM | GI50 (ACHN renal): 101 nM | TGI (ACHN renal): 1960 nM | GI50 (HCC-2998 colon): 27 nM | TGI (HCC-2998 colon): 188 nM | GI50 (K-562 leukemia): < 10 nM | TGI (K-562 leukemia): 159 nM | GI50 (BT-549 breast): 231 nM | TGI (BT-549 breast): 2540 nM | GI50 (SK-MEL-5 melanoma): 19.3 nM | TGI (SK-MEL-5 melanoma): 1270 nM | GI50 (TK-10 renal): 1100 nM | TGI (TK-10 renal): 2320 nM | GI50 (SK-MEL-2 melanoma): 40.4 nM | TGI (SK-MEL-2 melanoma): 1750 nM | GI50 (SK-OV-3 ovarian): 31.4 nM | TGI (SK-OV-3 ovarian): 1890 nM | GI50 (PC-3 prostate): 42.8 nM | TGI (PC-3 prostate): 1200 nM | GI50 (SN12C renal): 165 nM | TGI (SN12C renal): 2290 nM | GI50 (IGROV1 ovarian): 44.5 nM | TGI (IGROV1 ovarian): 2260 nM | GI50 (UACC-257 melanoma): 1500 nM | TGI (UACC-257 melanoma): 3310 nM | GI50 (SNB-19 CNS): 46.9 nM | TGI (SNB-19 CNS): 5800 nM | GI50 (KM12 colon): < 10 nM | TGI (KM12 colon): 163 nM | GI50 (MCF7 breast): 25.4 nM | TGI (MCF7 breast): 424 nM | GI50 (SF-268 CNS): 55.6 nM | TGI (SF-268 CNS): 1850 nM | GI50 (NCI-H23 lung): 51.6 nM | TGI (NCI-H23 lung): 2810 nM | GI50 (CCRF-CEM leukemia): < 10 nM | TGI (CCRF-CEM leukemia): 275 nM | GI50 (U251 CNS): 28 nM | TGI (U251 CNS): 162 nM | GI50 (UO-31 renal): 217 nM | TGI (UO-31 renal): 2090 nM | GI50 (HT29 colon): < 10 nM | TGI (HT29 colon): 110 nM | GI50 (786-0 renal): 35.8 nM | TGI (786-0 renal): 381 nM | GI50 (CAKI-1 renal): 50.9 nM | TGI (CAKI-1 renal): 1840 nM | GI50 (NCI-H460 lung): 33.5 nM | TGI (NCI-H460 lung): 122 nM | GI50 (M14 melanoma): < 10 nM | TGI (M14 melanoma): 111 nM | GI50 (SNB-75 CNS): 25.9 nM | TGI (SNB-75 CNS): 1230 nM | GI50 (RPMI-8226 leukemia): 42.5 nM | TGI (RPMI-8226 leukemia): 326 nM | GI50 (SF-539 CNS): 22 nM | TGI (SF-539 CNS): 70.7 nM | GI50 (LOX IMVI melanoma): 54.3 nM | TGI (LOX IMVI melanoma): 217 nM | GI50 (HCT-116 colon): 33.9 nM | TGI (HCT-116 colon): 140 nM | GI50 (OVCAR-8 ovarian): 43.8 nM | TGI (OVCAR-8 ovarian): 1170 nM | GI50 (OVCAR-3 ovarian): 21.7 nM | TGI (OVCAR-3 ovarian): 50.3 nM | GI50 (HOP-92 NSCLC): 394 nM | TGI (HOP-92 NSCLC): 2260 nM | GI50 (HOP-62 NSCLC): 29.1 nM | TGI (HOP-62 NSCLC): 2070 nM | GI50 (NCI/ADR-RES ovarian): 35.4 nM | TGI (NCI/ADR-RES ovarian): 1840 nM | GI50 (A498 renal): 18 nM | TGI (A498 renal): 193 nM | GI50 (HS 578T breast): 33.4 nM | TGI (HS 578T breast): 2520 nM

NS(=O)(=O)c1nnc(NC(=S)NC(=O)Nc2ccc(Cl)c(Cl)c2)s1
TGI (SF-295 CNS): 62100 nM | TGI (MOLT-4 leukemia): > 100000 nM | TGI (COLO 205 colon): 39100 nM | TGI (OVCAR-4 ovarian): 55200 nM | TGI (HL-60(TB) leukemia): 87600 nM | TGI (MDA-MB-435): 41900 nM | TGI (A549 NSCLC): > 100000 nM | TGI (UACC-62 melanoma): 33100 nM | TGI (NCI-H522 lung): 31000 nM | TGI (DU-145 prostate): 53900 nM | TGI (SK-MEL-28 melanoma): > 100000 nM | TGI (NCI-H226 lung): > 100000 nM | TGI (OVCAR-5 ovarian): 67700 nM | TGI (SW-620 colon): 65500 nM | TGI (MDA-MB-231 breast): > 100000 nM | TGI (RXF 393 renal): 42300 nM | TGI (K-562 leukemia): > 100000 nM | TGI (BT-549 breast): 50200 nM | TGI (SK-MEL-5 melanoma): 49000 nM | TGI (TK-10 renal): > 100000 nM | TGI (SK-MEL-2 melanoma): 88000 nM | TGI (SK-OV-3 ovarian): 62100 nM | TGI (PC-3 prostate): > 100000 nM | TGI (SN12C renal): 68200 nM | TGI (IGROV1 ovarian): 46700 nM | TGI (UACC-257 melanoma): 65100 nM | TGI (SNB-19 CNS): 94800 nM | TGI (KM12 colon): 39900 nM | TGI (MCF7 breast): > 100000 nM | TGI (SF-268 CNS): > 100000 nM | TGI (NCI-H23 lung): 40400 nM | TGI (MALME-3M melanoma): 59000 nM | TGI (CCRF-CEM leukemia): > 100000 nM | TGI (U251 CNS): > 100000 nM | TGI (UO-31 renal): 48000 nM | TGI (HT29 colon): 71900 nM | TGI (786-0 renal): > 100000 nM | TGI (CAKI-1 renal): 63600 nM | TGI (HCT-15 colon): 48900 nM | TGI (M14 melanoma): 36100 nM | TGI (SNB-75 CNS): 50000 nM | TGI (EKVX NSCLC): 80100 nM | TGI (RPMI-8226 leukemia): > 100000 nM | TGI (SF-539 CNS): 21800 nM | TGI (LOX IMVI melanoma): 34000 nM | TGI (HCT-116 colon): 44300 nM | TGI (OVCAR-8 ovarian): 69700 nM | TGI (OVCAR-3 ovarian): 62000 nM | TGI (HOP-92 NSCLC): 36200 nM | TGI (HOP-62 NSCLC): 63700 nM | TGI (NCI/ADR-RES ovarian): 62600 nM | TGI (HS 578T breast): 67200 nM
